In patent US10677782B2, “Methods of determining interferon having direct inhibitory effects on tumors and uses thereof” (SUPERLAB FAR EAST LIMITED, priority 2013, dated 2020):

Tests used:
[1] = test system: procaspase-3, cleaved caspase-3, procaspase-8, cleaved caspase-8, PARP in A549 cells; test: Apoptosis-related molecular markers by Western Blot; format: cell-based, human; settings: 24 hr or 48 hr; interferons at 10 mcg/ml
Source text: (§1) Thereafter, apoptosis-related molecular markers were monitored by Western Blot. The primary antibodies used were mouse monoclonal anti-beta-tubulin (1:2000, Cat #: CW0098A) and mouse monoclonal anti-GAPDH (1:2000, Cat #: CW0100A) (Kangwei Biotechnology, China); mouse monoclonal anti-PARP (1:1000, Cat #: se-2007, Santa Cruz Biotechnology, Inc.); rabbit monoclonal anti-procaspase 3 (1:1000, Cat #: 9665), and rabbit polyclonal anti-cleaved caspase 3 (1:1000, Cat #: 9661) (Cell Signaling Technology, USA); goat polyclonal anti-procaspase 8 (1:1000, Cat #: sc-6136, Santa Cruz Biotechnology, Inc); rabbit monoclonal anti-cleaved caspase 8 (1:1000, Cat #: 9496) (Cell Signaling Technology, USA).

[2] = test system: procaspase-3, cleaved caspase-3, procaspase-8, cleaved caspase-8, PARP in SW620 cells; test: as above; format: cell-based, human; settings: 24 hr or 48 hr; interferons at 10 mcg/ml
Source text: as §1

[3] = test system: human hepatoma SMMC-7721; test: Human hepatoma SMMC-7721 xenografts in nude mice (Example 1); format: in vivo; settings: 5 mg/kg i.v.
Protocol: The test article was used without dilution. It was stored at 4° C. until thawed for injection.
The animals used were 4-6 weeks old male BALB/cA nu/nu mice, weighing about 23±2 g, obtained from the Shanghai Institute of Materia Medica (Shanghai, P.R. China). The study protocol was reviewed by the Committee on the Use and Care of Animals of Shanghai Institute of Materia Medica for compliance with regulations, and Committee approval was obtained prior to study initiation. Wherever possible, procedures used in this study were designed to avoid or minimize discomfort, distress, and pain to the animals. Animals that experience severe or chronic pain or distress that could not be relieved were painlessly euthanized, in accordance to regulations. Animals were housed 6 to a cage. They were ear-marked with ear hole punch identification. The room temperature was maintained at 25° C.±1° C. Lighting was set at 12 hr on and 12 hr off. Food was provided ad libitum. City tap water, filtered with a 5 micrometer (μm) filter, was provided to the animals ad libitum via water bottles. Neither the Study Director nor Huiyang Life Science and Technology Corp. was aware of any contaminant in the food or water that would interfere with or influence the intent and purpose of this study.
The test article (rSIFN-co) and the vehicle control were each administered intratumorally (i.t.). The test article was administered in a volume of 0.05 ml-0.15 ml per mouse per treatment, depending on the group to which the animal was assigned. […] Normal saline was injected in a volume of 0.15 ml per mouse, which was used as vehicle control.
Animals were assigned to treatment groups randomly. Initially, all animals were placed in one large animal cage. For assignment to the study, they were later separately housed, with 6 animals per cage per treatment group. Groups 1 and 2 are Control groups in which the animals were each administered the vehicle every other day after the first treatment. […] The animals in Groups 4, 5 and 6 were each given rSIFN-co every other day after the first treatment at 0.15 mg/mouse (Group 4) or 0.10 mg/mouse (Group 5) or 0.05 mg/mouse (Group 6), respectively. Tumor growth was monitored by measuring the length and width of each tumor twice a week during the course of the study. Each animal was also weighed twice a week during the course of the study.
(§2) Before commencement of this study, the xenografts were passaged twice in nude mice. Under sterile conditions, well-grown tumors were cut into 1.5 mm^3 fragments and one such fragment was injected by trocar needle into the right flank of each study animal. […] Individual tumor size (length and width) was measured twice per week with microcalipers. Tumor volume (V) was calculated using the formula: V=(length×width^2)/2. Individual relative tumor volume (RTV) was calculated using the formula: RTV=Vt/V0, where Vt is the tumor volume on the day of measurement and V0 is the tumor volume on the day of first treatment. Therapeutic effect of the test article or control article was expressed in terms of TIC (%), using the formula: TIC (%) (mean RTV of the treated group/mean RTV of the control group)×100%; and in terms of % Inhibition, using the formula: % Inhibition=100%−T/C %.

[4] = test system: Human Cervical Cancer Hela Xenografts; test: Human cervical cancer Hela xenografts in nude mice (Example 2); format: in vivo; settings: 5 mg/kg i.v.
Protocol: as §2
Then 1.5 mm^3 fragments were prepared for s.c. implantation into the animals.

[5] = test system: Human Colon Cancer HT-29 Xenografts; test: Human colon cancer HT-29 xenografts in nude mice (Example 3); format: in vivo; settings: 5 mg/kg i.v.
Protocol: as §2
Then, 1.5 mm^3 fragments were prepared for s.c. implantation into the test animals.

[6] = test system: human lung cancer SPC-A4 xenografts; test: Human lung cancer SPC-A4 xenografts in nude mice (Example 4); format: in vivo; settings: 5 mg/kg i.v.
Protocol: as §2
The 1.5 mm^3 fragments were then used for s.c. implantation into the test animals.

SMILES | level of apoptosis-related molecular markers (procaspase-3, procaspase-8, PARP, cleaved caspase-3, cleaved caspase-8) [1] | level of apoptosis-related molecular markers (procaspase-3, procaspase-8, PARP, cleaved caspase-3, cleaved caspase-8) [2] | TV (mm^3, mean ± SD) (D0) ([3]; day 0, start of treatment) [mm^3] | TV (mm^3, mean ± SD) (D21) ([3]; day 21) [mm^3] | TV (mm^3, mean ± SD) (D0) ([4]; day 0, start of treatment) [mm^3] | TV (mm^3, mean ± SD) (D28) ([4]; day 28) [mm^3] | TV (mm^3, mean ± SD) (D0) ([5]; day 0, start of treatment) [mm^3] | TV (mm^3, mean ± SD) (D28) ([5]; day 28) [mm^3] | TV (mm^3, mean ± SD) (D0) ([6]; day 0, start of treatment) [mm^3] | TV (mm^3, mean ± SD) (D21) ([6]; day 21) [mm^3]
O=c1[nH]cc(F)c(=O)[nH]1 [5FU, reference compound] | significant reduction of in the level of procaspase-3, procaspase-8 and PARP, but exhibited an enhanced level of cleaved caspase-3 and cleaved caspase-8 | significant reduction of in the level of procaspase-3, procaspase-8 and PARP, but exhibited an enhanced level of cleaved caspase-3 and cleaved caspase-8 |  |  |  |  |  |  |  | 
CO[C@@]12[C@H](COC(N)=O)C3=C(C(=O)C(C)=C(N)C3=O)N1C[C@@H]1N[C@@H]12 [MMC, Mitomycin C, reference compound] |  |  | 125 ± 35 | 621 ± 247 | 130 ± 28 | 676 ± 358 | 132 ± 22 | 395 ± 95 | 166 ± 42 | 1831 ± 540
